According to patent US20130210024A1, “COMBINATION TREATMENT OF CANCER” (Agency for Science, Technology and Research, priority 2010, published 2013):
Residues, ends and D or L forms follow the SMILES beside them. *: point of attachment. Cbz = O=C(OCc1ccccc1)*

Columns and labels:
U2OS cells = experiment: FACS cell cycle / apoptosis analysis in U2OS cells, EZH2 RNA interference plus ADR or ETO; type: cell-based, human; conditions: control (non-knockdown) U2OS cells treated with the DNA damaging agent alone; FIG. 1A
Procedure: (§1) The human colorectal cancer HCT116 cells were kindly provided by Dr. Bert Vogelstein (John Hopkins University, MD). Other cell lines used in this study, including human osteosarcoma U2OS and Saos-2 and breast cancer MCF7 were obtained from the American Type Culture Collection (ATCC) and maintained in Dulbecco's modified Eagle medium (DMEM) supplemented with 10% fetal bovine serum (FBS) and antibiotics in a 37° C. humidified incubator containing 5% CO2. Human breast epithelial MCF10A cells were obtained from ATCC and maintained as recommended (Kadota et al 2010). Adramycin (ADR), Etopside (ETO), Nocodazole (Noco), proteasomal inhibitors MG132 and MG115 were purchased from Sigma-Aldrich.
Specific siRNA oligos targeting EZH2 (as described above) and FBXO32 (FBXO32 siRNA: 5_-GTCACATCCTTTCCTGGAA-3_) mRNAs were used. The non-targeting control was purchased from Dharmacon (Lafayett, Colo.). For EZH2 knockdown, a sequential twice knockdown is performed to secure efficient gene silencing. […]
Cells were harvested and fixed in 70% ethanol. […] The stained cells were analyzed for DNA content by fluorescence-activated cell sorting (FACS) in a FACS Calibur (Becton Dickinson Instrument, San Jose, Calif.). Cell cycle fractions were quantified using the CellQuest software (Becton Dickinson). […]

[1] = test system: U2OS, HCT116, Saos-2 and p53-deficient HCT116 cells; experiment: FACS cell cycle / apoptosis analysis, DZNep combined with ADR or ETO in cancer cells; type: cell-based, human
Procedure: as §1
(§2) Cells were harvested and fixed in 70% ethanol. Fixed cells were stained with propidium iodide (50 μg/mL) after treatment with RNase (100 μg/mL). The stained cells were analyzed for DNA content by fluorescence-activated cell sorting (FACS) in a FACS Calibur (Becton Dickinson Instrument, San Jose, Calif.). Cell cycle fractions were quantified using the CellQuest software (Becton Dickinson). For synchronization experiment, HCT116 cells expressing FBXO32 or empty vector were treated with Nocodazole (400 ng/ml) for 16 h, mitotically arrested cells were treated with ADR and then subject to FACS for cell cycle analysis.

FBXO32, p21, p-Chk1 = experiment: Immunoblot analysis of FBXO32, p21 and Chk1 phosphorylation after DZNep with ADR or ETO; type: cell-based, human
Procedure: as §1
Protein extracts were prepared by lysis in RIPA buffer containing (50 mM Tris-HCl, pH 7.4, 150 mM NaCl, 1% Nonidet P-40, 0.5% sodium deoxycholate, 0.1% SDS, 1 mM EDTA, 50 mM NaF, 0.1 mM Na3VO4) and protease inhibitor cocktail (Roch). Lysates were resolved by SDS-PAGE, transferred onto a immobilon membrane (Millipore) and probed with indicated antibodies. For co-immunoprecipitation experiments, cells were lysed and incubated with the indicated antidodies and protein G-seperose beads overnight at 4° C. Beads were washed four times with lysis buffer. The bound proteins were dissolved in SDS sample buffer, resolved by SDS-PAGE, and immunoblotted with the indicated antibodies. Where indicated, proteosome inhibitors MG-132 (5 μM) or MG-115 (20 μM) were used to treat cells for 8 h before protein extraction. Antibodies used in this study include: anti-EZH2 (Cell Signaling), anti-p21 (Santa Cruz), anti-FBXO32 (Santa Cruz), anti-p53 (Santa Cruz), anti-MDM2 (Santa Cruz), anti-phospho-Chk1 (Cell signaling), anti-Chk1 (Santa Cruz), anti-phospho-Chk2 (Cell signaling), anti-Chk2 (Upstate), anti-H3 (Cell signaling), anti-PARP (Cell Signaling), anti-H3K27me3 (Upstate), anti-actin mouse monoclonal (Sigma).

[2] = test system: non-transformed MCF-10A, IMR90 and RWEP cells; experiment: ADR or ETO-induced apoptosis in non-transformed cells with DZNep; type: cell-based, human; conditions: data not shown
Procedure: as §1, §2

p21 mRNA = p21 mRNA level (Taqman quantitative real-time PCR); type: cell-based, human; conditions: DZNep with ADR or ETO; data not shown
Procedure: Total RNA was isolated using Trizol (Invitrogen) and purified with the RNeasy Mini Kit (Qiagen). Reverse transcription was performed using an RNA Amplification kit (Ambion). Quantitative real-time PCR was assessed using the PRISM 7900 Sequence Detection System (Applied Biosystems) with specific probes from Applied Biosystem. Samples were normalized to the levels of GAPDH mRNA.

EZH2 complex = conditions: cancer cells; previously shown (Tan et al., 2007); cited from earlier work

In the case of `COc1cccc2c1C(=O)c1c(O)c3c(c(O)c1C2=O)C[C@@](O)(C(=O)CO)C[C@@H]3O[C@H]1C[C@H](N)[C@H](O)[C@H](C)O1` [Adriamycin], the “cell cycle arrest / apoptosis in control cells” value (U2OS cells) was “mainly cell cycle arrested with little apoptosis”.

For `Nc1nccc2c1ncn2[C@@H]1C=C(CO)[C@@H](O)[C@H]1O` [DZNep, 3-Deazaneplanocin A], the “effect of DZNep on DNA damage-induced apoptosis, p21 and p-Chk1 when FBXO32 is knocked down” value ([1]; HCT116 cells with FBXO32 knockdown, FIGS. 4E, 4F) was “largely abolished when FBXO32 was knockdown”, the “checkpoints activation (FACS)” value ([1]; combination of DZNep with ADR or ETO, HCT116 or U2OS cells, FIG. 4A) was “abrogates checkpoints activation” and the “checkpoints (FACS), p53-deficient cells” value ([1]; combination of DZNep with ADR or ETO, p53-deficient HCT116 or Saos-2 cells, FIG. 4C) was “abrogates checkpoints”. The “effect on ADR or ETO-induced cell cycle arrest / apoptosis” value ([1]; pretreatment with DZNep, then ADR or ETO, p53-proficient U2OS and HCT116, p53-deficient Saos-2 and HCT116 cells, FIGS. 4A, 4C) was “converted ADR or ETO-induced cell cycle arrest to marked apoptosis”, the “p21 and/or p-Chk1 induction by ADR or ETO” value (FBXO32, p21, p-Chk1; DZNep with ADR or ETO, U2OS, HCT116, Saos-2, p53-deficient HCT116, FIGS. 4B, 4D) was “largely abolished” and the FBXO32 induction (FBXO32, p21, p-Chk1; EZH2 depletion by DZNep, U2OS, HCT116, Saos-2, p53-deficient HCT116, FIGS. 4B, 4D) was “accompanied with FBXO32 induction”. The “ADR or ETO-induced p21 accumulation and Chk1 phosphorylation” value (FBXO32, p21, p-Chk1; combination of DZNep with ADR or ETO, HCT116 and U2OS cells, FIG. 4B) was “abolishes”, the “DNA damage induced p21 accumulation and Chk1 phosphorylation, p53-deficient cells” value (FBXO32, p21, p-Chk1; combination of DZNep with ADR or ETO, p53-deficient HCT116 and Saos-2 cells, FIG. 4D) was “abolishes” and the “promotion of ADR or ETO-induced apoptosis in non-transformed cells” value [2] was “did not promote”. For the same molecule, the “p21 mRNA as cause of p21 protein downregulation” value (p21 mRNA) was “not due to a decrease in p21 mRNA” and the “depletion of EZH2 complex” value (EZH2 complex) was “can deplete EZH2 complex”.

With `COc1cc([C@@H]2c3cc4c(cc3[C@@H](O[C@@H]3O[C@@H]5CO[C@@H](C)O[C@H]5[C@H](O)[C@H]3O)[C@H]3COC(=O)[C@H]23)OCO4)cc(OC)c1O` [Etoposide] the “cell cycle arrest / apoptosis in control cells” value (U2OS cells) was “mainly cell cycle arrested with little apoptosis”.

For `CC(C)C[C@@H](C=O)NC(=O)[C@H](CC(C)C)NC(=O)[C@H](CC(C)C)NC(=O)OCc1ccccc1` [MG132] (Cbz-Leu-Leu-Leu-aldehyde), the “p21 protein downregulation by DZNep with ADR or ETO, effect of proteasome inhibitor” value (FBXO32, p21, p-Chk1; MG132 added, data not shown) was “prevented”.
